Like-named read-outs stand apart in the source and are kept apart here.
What was measured:
[1] = system: glyphosate resistant Conyza canadensis (L.) (ERICA), horseweed; experiment: Postemergence herbicide evaluation, growth of Conyza canadensis (ERICA); format: in vivo; settings: Erigeron canadensis, post-emergence, percent reduction in plant size vs untreated control, read-out: Ave. ERICA; for pest or weed control at 280 g/ha: 280 g ae/ha; for pest or weed control at 560 g/ha: 560 g ae/ha
[2] = system: weeds ABUTH, AMATA, AMBEL, CHEAL, ERICA; experiment: Postemergence herbicide evaluation, overall average % weed control across ABUTH, AMATA, AMBEL, CHEAL and ERICA; format: in vivo; settings: post-emergence, average over five weeds, read-out: Overall Ave % Weed Control; for pest or weed control at 280 g/ha: 280 g ae/ha; for pest or weed control at 560 g/ha: 560 g ae/ha
[3] = system: Abutilon theophrasti (ABUTH), velvetleaf; experiment: Postemergence herbicide evaluation, growth of Abutilon theophrasti (ABUTH); format: in vivo; settings: Abutilon theophrasti, post-emergence, percent reduction in plant size vs untreated control, read-out: AVE. ABUTH; for pest or weed control at 280 g/ha: 280 g ae/ha; for pest or weed control at 560 g/ha: 560 g ae/ha
[4] = system: Ambrosia artemisiifolia (AMBEL), common ragweed; experiment: Postemergence herbicide evaluation, growth of Ambrosia artemisiifolia (AMBEL); format: in vivo; settings: Ambrosia artemisiifolia, post-emergence, percent reduction in plant size vs untreated control, read-out: AVE. AMBEL; for pest or weed control at 280 g/ha: 280 g ae/ha; for pest or weed control at 560 g/ha: 560 g ae/ha
[5] = system: Amaranthus rudis (AMATA), tall water hemp; experiment: Postemergence herbicide evaluation, growth of Amaranthus rudis (AMATA); format: in vivo; settings: Amaranthus tuberculatus, post-emergence, percent reduction in plant size vs untreated control, read-out: Ave. AMATA; for pest or weed control at 280 g/ha: 280 g ae/ha; for pest or weed control at 560 g/ha: 560 g ae/ha
[6] = system: Chenopodium album (CHEAL), common lambsquarters; experiment: Postemergence herbicide evaluation, growth of Chenopodium album (CHEAL); format: in vivo; settings: Chenopodium album, post-emergence, percent reduction in plant size vs untreated control, read-out: Ave. CHEAL; for pest or weed control at 280 g/ha: 280 g ae/ha; for pest or weed control at 560 g/ha: 560 g ae/ha
[7] = Volatility of compounds measured by thermogravimetric analysis (TGA); format: physicochemical

| SMILES | pest or weed control at 280 g/ha ([1]; 168 h, 7 DAA) | pest or weed control at 560 g/ha ([1]; 168 h, 7 DAA) | pest or weed control at 280 g/ha ([1]; 336 h, 14 DAA) | pest or weed control at 560 g/ha ([1]; 336 h, 14 DAA) | pest or weed control at 280 g/ha ([1]; 504 h, 21 DAA) | pest or weed control at 560 g/ha ([1]; 504 h, 21 DAA) | pest or weed control at 280 g/ha ([2]; 168 h, 7 DAA) | pest or weed control at 560 g/ha ([2]; 168 h, 7 DAA) | pest or weed control at 280 g/ha ([2]; 336 h, 14 DAA) | pest or weed control at 560 g/ha ([2]; 336 h, 14 DAA) | pest or weed control at 280 g/ha ([2]; 504 h, 21 DAA) | pest or weed control at 560 g/ha ([2]; 504 h, 21 DAA) | pest or weed control at 280 g/ha ([3]; 168 h, 7 DAA) | pest or weed control at 560 g/ha ([3]; 168 h, 7 DAA) | pest or weed control at 280 g/ha ([3]; 336 h, 14 DAA) | pest or weed control at 560 g/ha ([3]; 336 h, 14 DAA) | pest or weed control at 280 g/ha ([3]; 504 h, 21 DAA) | pest or weed control at 560 g/ha ([3]; 504 h, 21 DAA) | pest or weed control at 280 g/ha ([4]; 168 h, 7 DAA) | pest or weed control at 560 g/ha ([4]; 168 h, 7 DAA) | other results |
| --- | --- | --- | --- | --- | --- | --- | --- | --- | --- | --- | --- | --- | --- | --- | --- | --- | --- | --- | --- | --- | --- |
| O=C(COc1ccc(Cl)cc1Cl)Nc1ccccn1 [Compound D28] | 82.5% | 82.5% | 99.5% | 97.5% | 99.5% | 98.5% | 79% | 83.1% | 95.8% | 95.8% | 96.2% | 99% | 77.5% | 72.5% | 96.5% | 97.5% | 100% | 100% | 75% | 85% | pest or weed control at 280 g/ha ([4]; 336 h, 14 DAA): 90%; pest or weed control at 560 g/ha ([4]; 336 h, 14 DAA): 100%; pest or weed control at 280 g/ha ([4]; 504 h, 21 DAA): 100%; pest or weed control at 560 g/ha ([4]; 504 h, 21 DAA): 100%; pest or weed control at 280 g/ha ([5]; 168 h, 7 DAA): 80%; pest or weed control at 560 g/ha ([5]; 168 h, 7 DAA): 98%; pest or weed control at 280 g/ha ([5]; 336 h, 14 DAA): 96%; pest or weed control at 560 g/ha ([5]; 336 h, 14 DAA): 87.5%; pest or weed control at 280 g/ha ([5]; 504 h, 21 DAA): 81.5%; pest or weed control at 560 g/ha ([5]; 504 h, 21 DAA): 100%; pest or weed control at 280 g/ha ([6]; 168 h, 7 DAA): 80%; pest or weed control at 560 g/ha ([6]; 168 h, 7 DAA): 77.5%; pest or weed control at 280 g/ha ([6]; 336 h, 14 DAA): 97%; pest or weed control at 560 g/ha ([6]; 336 h, 14 DAA): 96.5%; pest or weed control at 280 g/ha ([6]; 504 h, 21 DAA): 100%; pest or weed control at 560 g/ha ([6]; 504 h, 21 DAA): 96.5%; TGA Data (rate of weight loss, volatility) [7]: 0.06 µg/min |
| C/C(=N\OC(=O)COc1ccc(Cl)cc1Cl)C(=O)c1ccccc1 [Compound A22] | 87.5% | 77.5% | 100% | 100% | 99% | 99.5% | 74.5% | 79.5% | 87% | 96.5% | 89.7% | 96.8% | 62.5% | 70% | 82.5% | 98.5% | 97% | 99.5% | 77.5% | 82.5% | pest or weed control at 280 g/ha ([4]; 336 h, 14 DAA): 67.5%; pest or weed control at 560 g/ha ([4]; 336 h, 14 DAA): 92.5%; pest or weed control at 280 g/ha ([4]; 504 h, 21 DAA): 100%; pest or weed control at 560 g/ha ([4]; 504 h, 21 DAA): 100%; pest or weed control at 280 g/ha ([5]; 168 h, 7 DAA): 70%; pest or weed control at 560 g/ha ([5]; 168 h, 7 DAA): 87.5%; pest or weed control at 280 g/ha ([5]; 336 h, 14 DAA): 87.5%; pest or weed control at 560 g/ha ([5]; 336 h, 14 DAA): 92.5%; pest or weed control at 280 g/ha ([5]; 504 h, 21 DAA): 65%; pest or weed control at 560 g/ha ([5]; 504 h, 21 DAA): 87.5%; pest or weed control at 280 g/ha ([6]; 168 h, 7 DAA): 75%; pest or weed control at 560 g/ha ([6]; 168 h, 7 DAA): 80%; pest or weed control at 280 g/ha ([6]; 336 h, 14 DAA): 97.5%; pest or weed control at 560 g/ha ([6]; 336 h, 14 DAA): 99%; pest or weed control at 280 g/ha ([6]; 504 h, 21 DAA): 87.5%; pest or weed control at 560 g/ha ([6]; 504 h, 21 DAA): 97.5%; TGA Data (rate of weight loss, volatility) [7]: 0.42 µg/min |

From patent US20260042731A1, “(2,4-DICHLOROPHENOXY)ACETIC ACID ANALOGS” (CORTEVA AGRISCIENCE LLC, priority 2022, published 2026)
